Source: article PMC11819603, “Development of a reliable, sensitive, and convenient assay for the discovery of new eIF5A hypusination inhibitors” (PLOS ONE, 2025)

Legend:
DOHH = biological target: T1, DOHH (Homo sapiens, UniProt Q9BU89); assay: Hyp'Assay, substance added after the deoxyhypusination reaction (DOHH step); format: biochemical; conditions: for hypusination signal, Mean (quantification from Figure 3C): control 100,0
T1 construct: pelB leader (N); host or cells: E. coli BL21 (DE3)
T1 sequence (Q9BU89 1-302): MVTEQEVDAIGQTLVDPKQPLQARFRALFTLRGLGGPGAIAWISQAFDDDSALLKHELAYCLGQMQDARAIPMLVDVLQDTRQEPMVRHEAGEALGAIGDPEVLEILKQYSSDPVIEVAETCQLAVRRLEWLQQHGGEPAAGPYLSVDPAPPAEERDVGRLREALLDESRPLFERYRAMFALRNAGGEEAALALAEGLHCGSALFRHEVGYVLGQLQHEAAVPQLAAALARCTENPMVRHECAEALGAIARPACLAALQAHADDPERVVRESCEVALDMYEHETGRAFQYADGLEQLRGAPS
Experimental: We then tested the ability of DOHH inhibitors to inhibit eIF5A hypusination using the Hyp’Assay. During the Hyp’Assay, DOHH inhibitors were added after the deoxyhypusination reaction.
To address this issue, we compared the ability of GC7 to inhibit DHPS or DOHH by adding GC7 during the first step of the Hyp’Assay; when DHPS mediates the deoxyhypusination reaction (Fig 2A), or only during the second step, when DOHH hydroxylate deoxyhypusinated eIF5A. […] When finding new hypusination inhibitors adding them during the first or the second step of the Hyp’Assay will allow us to determine if the inhibition affects DHPS or DOHH. Another way to discriminate between DHPS or DOHH inhibitors would be to use Hpu98, an antibody that recognized both hypusinated and deoxyhypusinated eIF5A, instead of Hpu24, which is specific for hypusinated eIF5A [18]. […] We performed a new Hyp’Assay by omitting DOHH in the reaction mix and using the Hpu98 antibody. First, we performed a dose response experiment with spermidine at pH: 8.0 and 9.0 (Fig 3E). […] We also tested the ability of GC7 (Fig 3F) and CPX or EDTA (Fig 3G) to inhibit DHPS.
(§1) […] Then 10 μL containing 1 μg of DOHH with 10 μM Fe^2+ (H8FeN2O8S2^. 6H2O) were added. After 1 h proteins were analyzed by Western Blot using antibodies toward DHPS, DOHH, Hypusine, and eIF5A.
(§2) The cell-free reaction described in 4.4 is performed in triplicates in a 96-wells plate (MaxiSorp, ThermoFisher) in the presence of 3 μg of eIF5A, 2 μg of DHPS, and 2 μg of DOHH by well. The reaction product, hypusinated eIF5A, is adsorbed onto the plate overnight at 4°C. The plate is washed (100 μL/well) thrice with PBS-T (PBS– 0.05% Tween20), then saturated with 1% non-fat dry milk in PBS-T for 2 h at room temperature. The plate is washed thrice with PBS-T and incubated overnight at 4°C with the anti-hypusine antibody (1:2000 in saturation buffer, 50 μL/well). The next day and after 5 washes with PBS-T, HRP-coupled anti-rabbit secondary antibody diluted 1:5000 in saturation buffer (50 μL/well) is added for 2 h at room temperature.

[1] = tested on: eIF5A hypusination in MCF7 cells; assay: eIF5A hypusination in intact MCF7 cells, Western blot; format: cell-based, human; conditions: 40 μM, 24 h, Ctrl 100, 4 experiments
Experimental: We tested the ability of the GC7 analogs to inhibit hypusination in intact cells. MCF-7 cells (Fig 5B), a classical model of breast cancer cell line, and HT29 cells (Fig 5C), a cell model of colorectal cancer, were treated with 40 μM of GC7, 1, 2, 3, and 4 for 24h. Cells were lysed and analyzed by Western blot. As observed, none of the molecules modified eIF5A expression. […] GC7 analogs inhibited hypusination from 35 to 55%.
The human breast cancer cell line MCF7 (HTB-22 ATCC) and colorectal adenocarcinoma HT29 (HTB-38 ATCC) were cultured in DMEM (Gibco) supplemented with 10% FBS (Dutscher), 10 U/mL penicillin, and […] streptomycin. 1 mM of aminoguanidine was added to the medium to inhibit the degradation of GC7 and polyamines by amine oxidase from the serum and the production of reactive oxygen species. Cells were maintained at 37°C, 5% CO2 in a humid atmosphere.
After treatment, cells were washed with ice-cold PBS and lysed in RIPA Buffer (50 mM Tris pH 7.5, 150 mM NaCl, 0.1% SDS, 0.5% Na Deoxycholate, 5 mM NaF, 2.5 mM Na4P2O7, 1% NP4O) containing a protease inhibitor cocktail (complete Roche). 10 μg of proteins were separated by SDS PAGE and transferred to a PVDF membrane (Immobilon-P Millipore). The membranes were probed with the appropriate primary antibody that was detected by horseradish peroxidase-conjugated secondary antibody (Jackson Immunoresearch) and visualized by chemiluminescence (ECL Amersham RPN 3244) using a Fuji LAS-4000 imager. ImageJ® software was used to quantify band intensity and the ratios of proteins of interest were normalized to a loading control. Full-length Western blots are provided in the supplementary data (S19, S20 Figs).

DHPS = biological target: T2, DHPS (Homo sapiens, UniProt P49366); assay: Hyp'Assay: cell-free eIF5A hypusination in 96-well plates (recombinant eIF5A, DHPS, DOHH; anti-hypusine antibody Hpu24), substance present in the DHPS step; format: biochemical; conditions: for concentration from which inhibition of hypusination was detectable / hypusination signal, Mean (quantification from Figure 5A): 5 μM spermidine; for hypusination signal, Mean (quantification from Figure 5A): control 98,5; for hypusination signal, Mean (quantification from Figure 3B): control 100,0
T2 construct: host or cells: E. coli BL21 (DE3)
T2 sequence (P49366 1-369): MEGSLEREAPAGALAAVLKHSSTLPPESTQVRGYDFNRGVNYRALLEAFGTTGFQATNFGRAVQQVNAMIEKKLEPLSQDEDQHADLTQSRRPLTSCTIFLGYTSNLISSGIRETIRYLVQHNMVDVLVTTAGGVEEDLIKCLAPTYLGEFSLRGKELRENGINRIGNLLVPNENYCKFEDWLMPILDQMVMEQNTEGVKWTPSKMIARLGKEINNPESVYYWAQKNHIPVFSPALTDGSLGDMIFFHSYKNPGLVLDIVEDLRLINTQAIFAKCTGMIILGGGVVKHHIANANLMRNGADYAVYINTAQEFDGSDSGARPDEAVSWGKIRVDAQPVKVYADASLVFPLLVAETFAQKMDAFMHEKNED
Experimental: The principle of the Hyp’Assay (Fig 2A) is to perform eIF5A hypusination reaction in 96-well plates, allow eIF5A to adsorb to the plate, incubate with an anti-hypusine antibody and a secondary antibody conjugated to HRP and reveal hypusination using TMB as a substrate.
as §1, §2

[2] = concentration 1 (no unit on page; Fig 3C dose-response 0 to 100 μM)
[3] = concentration 10 (no unit on page; Fig 3C dose-response 0 to 100 μM)
[4] = concentration 100 (no unit on page; Fig 3C dose-response 0 to 100 μM)
[5] = concentration 1 (no unit on page; Fig 5A 0 to 1 mM)
[6] = concentration 10 (no unit on page; Fig 5A 0 to 1 mM)
[7] = concentration 100 (no unit on page; Fig 5A 0 to 1 mM)
[8] = concentration 1000 (no unit on page; Fig 5A 0 to 1 mM)
[9] = concentration 1 (no unit on page; Fig 3B dose-response 0 to 1 mM)
[10] = concentration 10 (no unit on page; Fig 3B dose-response 0 to 1 mM)
[11] = concentration 100 (no unit on page; Fig 3B dose-response 0 to 1 mM)
[12] = concentration 1000 (no unit on page; Fig 3B dose-response 0 to 1 mM)

| SMILES | hypusination signal, Mean (quantification from Figure 3C) (DOHH; [2]) | hypusination signal, Mean (quantification from Figure 3C) (DOHH; [3]) | hypusination signal, Mean (quantification from Figure 3C) (DOHH; [4]) | hypusinated eIF5A, Western blot quantification, Mean (Figure 5B) [1] | concentration from which inhibition of hypusination was detectable (DHPS) [µM] | hypusination signal, Mean (quantification from Figure 5A) (DHPS; [5]) | hypusination signal, Mean (quantification from Figure 5A) (DHPS; [6]) | hypusination signal, Mean (quantification from Figure 5A) (DHPS; [7]) | hypusination signal, Mean (quantification from Figure 5A) (DHPS; [8]) | hypusination signal, Mean (quantification from Figure 3B) (DHPS; [9]) | hypusination signal, Mean (quantification from Figure 3B) (DHPS; [10]) | hypusination signal, Mean (quantification from Figure 3B) (DHPS; [11]) | hypusination signal, Mean (quantification from Figure 3B) (DHPS; [12]) | other results |
| --- | --- | --- | --- | --- | --- | --- | --- | --- | --- | --- | --- | --- | --- | --- |
| Nc1nc(=O)c2nc(CNc3ccc(C(=O)N[C@@H](CCC(=O)O)C(=O)O)cc3)cnc2[nH]1 [Folate, folic acid] | 56,38 | 57,32 | 65,33 | – | – | – | – | – | – | – | – | – | – | inhibition at 1 µM (DOHH; at 1 μM): 50% |
| N=C(N)NCCCCO [compound 1, 4-hydroxybutylguanidine] | – | – | – | 65 | 1 | 70,7 | 62,5 | 61,5 | 55,2 | – | – | – | – | – |
| N=C(N)NCCCCCCO [compound 2, 6-hydroxyhexylguanidine] | – | – | – | 44.5 | 1 | 81,3 | 64,4 | 59,1 | 44,6 | – | – | – | – | – |
| NCCCCN [putrescine] | – | – | – | – | – | – | – | – | – | 111,3 | 94,6 | 95,3 | 30,5 | inhibition at 1000 µM (DHPS; at 1 mM): 70% |
| NCCCNCCCCNCCCN [spermine] | 69,38 | 59,12 | 54,32 | – | – | – | – | – | – | 106,1 | 114,0 | 104,5 | 111,4 | effect on eIF5A hypusination (DHPS; concentrations up to 1 mM): did not affect eIF5A hypusination; use as alternate DHPS substrate (DHPS; dose response compared with spermidine (S3 Fig)): can be used as a substrate by DHPS in the Hyp’Assay, although with lower efficiency than spermidine; hypusination signal with the substance as substrate, Mean (quantification from Figure S3) (DHPS; substrate concentration 0,01 (mM)): -0,07; hypusination signal with the substance as substrate, Mean (quantification from Figure S3) (DHPS; substrate concentration 0,1 (mM)): 0,01; hypusination signal with the substance as substrate, Mean (quantification from Figure S3) (DHPS; substrate concentration 0,0001 (mM)): 0,19; hypusination signal with the substance as substrate, Mean (quantification from Figure S3) (DHPS; substrate concentration 0,001 (mM)): -0,08; hypusination signal with the substance as substrate, Mean (quantification from Figure S3) (DHPS; substrate concentration 1 (mM)): 2,17; hypusination signal with the substance as substrate, Mean (quantification from Figure S3) (DHPS; substrate concentration 10 (mM)): 21,70; hypusination signal with the substance as substrate, Mean (quantification from Figure S3) (DHPS; substrate concentration 100 (mM)): 39,64; hypusination signal with the substance as substrate, Mean (quantification from Figure S3) (DHPS; substrate concentration 1000 (mM)): 28,97 |
